Columns and labels:
A549 cells = assay: RNA-seq of TP-0903-treated A549 cells; format: cell-based, human; details: A549, 40 nmol/L
Procedure: RNA-seq. Total RNA was extracted from TP-0903-treated and AXL-knockdown A549 cells and from respective controls in two biological replicates by using the PureLink RNA Mini Kit (Thermo Fisher Scientific). Sequencing of cDNAs was performed with Illumina HiSeq3000 as per manufacturer's instructions. Paired-end FASTQ files were generated and aligned with the human reference genome GRCh38 by using STAR alignment software. RSEM was applied to quantify gene expression levels, and fragments per kilobase of transcript per million (FPKM) mapped reads were calculated. The different expression levels of genes were compared between control and treatment groups by using RSEM software. […] Both gene sets were used to perform pathway enrichment analysis on Gene Ontology Consortium (http://geneontology.org/) by using Reactome pathway databases in PANTHER [45, 46]. Significant pathways were further analyzed with gene sets downloaded from the Molecular Signatures Database v6.2 (http://software.broadinstitute.org/gsea/msigdb/). Fold changes of candidate genes were calculated on the basis of log FPKM values and used to generate heat maps.
RNA-seq. […] The RSEM software was applied to quantify expression levels, and fragments per kilo base of transcript per million (FPKM) mapped reads were calculated. […]

A549 and H2009 cells = assay: Capillary Western immunoassay (WES); format: cell-based, human
Procedure: Capillary Western immunoassay. Protein lysates of A549 lung cancer cells were prepared in radioimmunoprecipitation assay buffer (Thermo Fisher Scientific). Proteins with 12-230 kDa were analyzed in the Western immunoassay (WES) Separation Module of the quantitative capillary Western immunoassay system (ProteinSimple, San Jose, Calif.). The following antibodies were used: (i) β-catenin, AXL, AKT, C-RAF, p38 MAPK, MEK1/2, P42/44 MAPK, SMAD2/3, SMAD4, and GAPDH from Cell Signaling Technology (Danvers, Mass.); (ii) p-AXL from R&D Systems (Minneapolis, Minn.); (iii) vimentin, YAP1, TAZ, CK8/18 and CK19 from Novus Biologicals (Centennial, Colo.); (iv) N-cadherin from Abcam (Cambridge); (v) E-cadherin from BD Biosciences (San Jose, Calif.). Protein expression levels were normalized with that of GAPDH.
Capillary Western immunoassay (WES). Protein lysates of A549 and H2009 cells were prepared in radio-immunoprecipitation assay buffer (Thermo Fisher Scientific). Proteins were then analyzed in 12-230 and 66-440 kDa WES separation module of quantitative capillary Western immunoassay system (Protein Simple). The following antibodies were used: 1) AXL, AKT, JNK, p38 MAPK, MEK1/2, P42/44 MAPK, and GAPDH (Cell Signaling Technology); and 2) p-AXL and YAP1 (R&D Systems). Protein expression levels were normalized with GAPDH as loading controls.
Materials and methods. Capillary Western immunoassay (WES). Protein lysates of A549 and H2009 cells were prepared in radio-immunoprecipitation assay buffer (Thermo Fisher Scientific). Proteins were then analyzed in 12-230 and 66-440 kDa WES separation module of quantitative capillary Western immunoassay system (Protein Simple). Antibodies against AXL and GAPDH were (Cell Signaling Technology). Protein expression levels were normalized with GAPDH as loading controls.

CN1CCN(Cc2ccc(Nc3ncc(Cl)c(Nc4ccccc4S(=O)(=O)N(C)C)n3)cc2)CC1 [TP-0903]
IL-11 expression (RNA-seq) (A549 cells): down-regulated significantly | IL-11 expression (RNA-seq) (A549 cells; listed as TP0903): markedly downregulated | AXL level (WES) (A549 and H2009 cells; A549, 40 nmol/L): down-regulated | cytokeratin 19 (CK19) level (A549 and H2009 cells; A549 and H2009, 40 nM): noticeable increase | vimentin level (A549 and H2009 cells; A549 and H2009, 40 nM): minor decrease | protein levels of AXL, phosphorylated AXL, SMAD2/3, SMAD4, YAP1, and TAZ (A549 and H2009 cells; A549 and H2009, 40 nmol/L): reduced

— patent US20220308062A1, “METHODS FOR PREDICTING DRUG RESPONSIVENESS IN SAMPLES FROM CANCER SUBJECTS” (Board of Regents, The University of Texas System, priority 2019, published 2022)
